Literature values as cited in US8470366B2, “Nicotine containing soft gelatin pastilles” (priority 2010, dated 2013).

Key:
[1] = background statement
[2] = background statement; remark: listed apart in the source

Row | Structure (SMILES) | Physiological activity relative to (−) nicotine [1] | Half life of nicotine in the body [2]
1 | CN1CCCC1c1cccnc1 (single isomer, unassigned; (+)) [(+) nicotine] | one-half | –
2 | CN1CCCC1c1cccnc1 (centres unmarked) [nicotine, Nicotine] | – | around two
